In US10730874B2 (Shire Human Genetic Therapies, Inc., priority 2018, dated 2020):

biological target: human activated kallikrein enzyme (plasma kallikrein) (Homo sapiens (Human), UniProt P03952); assay: Inhibition of human activated plasma kallikrein, fluorogenic peptide substrate assay, 500 pM enzyme format; type: biochemical; details: 500 pM activated kallikrein enzyme, 300 uM Pro-Phe-Arg-7-amido-4-methylcoumarin substrate, 30 min preincubation, 10 min at RT; read-out: Primary Dose Response Assay: Average EC50
Description: Example compounds were evaluated for inhibition of the human activated kallikrein enzyme in two formats of an assay employing a fluorogenic peptide substrate. In one assay format, the concentrations of reagents were as follows: 20 mM Tris pH 7.5, 1 mM EDTA, 150 mM sodium chloride, 0.1% PEG-400, 0.1% Triton X-100, 500 pM activated kallikrein enzyme, 300 uM Pro-Phe-Arg-7-amido-4-methylcoumarin substrate. Prior to reaction initiation with substrate, enzyme and inhibitors were preincubated for 30 min at RT. After initiation with substrate, reactions were incubated for 10 min at RT and fluorescence emission at 460 nm from 380 nm excitation measured with a microplate reader. In another assay format, the concentrations of reagents were as follows: 20 mM Tris pH 7.5, 1 mM EDTA, 150 mM sodium chloride, 0.1% PEG-400, 0.1% Triton X-100, 5 pM activated kallikrein enzyme, 300 uM Pro-Phe-Arg-7-amido-4-methylcoumarin substrate. Prior to reaction initiation with substrate, enzyme and inhibitors were preincubated for 30 min at RT. After initiation with substrate, reactions were incubated for 18 h at RT and fluorescence emission at 460 nm from 380 nm excitation measured with a microplate reader.

Chain of human activated kallikrein enzyme (plasma kallikrein) (P03952 391-638): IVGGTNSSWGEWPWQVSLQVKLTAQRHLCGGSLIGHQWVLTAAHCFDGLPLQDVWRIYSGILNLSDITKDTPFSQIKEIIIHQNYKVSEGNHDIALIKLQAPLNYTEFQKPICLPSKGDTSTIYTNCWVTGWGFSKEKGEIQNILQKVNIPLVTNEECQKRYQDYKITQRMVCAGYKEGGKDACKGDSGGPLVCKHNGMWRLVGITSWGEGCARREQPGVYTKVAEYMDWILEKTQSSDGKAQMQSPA
Chain of human activated kallikrein enzyme (plasma kallikrein) (P03952 20-390 partner): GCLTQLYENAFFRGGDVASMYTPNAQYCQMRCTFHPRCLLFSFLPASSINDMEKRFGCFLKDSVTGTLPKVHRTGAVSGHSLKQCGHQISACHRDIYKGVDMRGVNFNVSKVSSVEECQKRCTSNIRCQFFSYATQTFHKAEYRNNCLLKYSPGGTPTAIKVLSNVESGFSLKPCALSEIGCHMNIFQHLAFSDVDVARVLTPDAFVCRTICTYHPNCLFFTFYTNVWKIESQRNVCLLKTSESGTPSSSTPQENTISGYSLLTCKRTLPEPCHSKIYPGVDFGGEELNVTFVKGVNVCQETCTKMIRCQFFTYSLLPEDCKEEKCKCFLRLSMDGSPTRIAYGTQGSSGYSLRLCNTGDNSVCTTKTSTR

`O=C(NCc1ncn2ccc(Cl)c(F)c12)c1cn(Cc2cn3nccc(CC4COC4)c3n2)nn1` [Example I-296, N-((7-chloro-8-fluoroimidazo[1,5-a]pyridin-1-yl)methyl)-1-((8-(oxetan-3-ylmethyl)imidazo[1,2-b]pyridazin-2-yl)methyl)-1H-1,2,3-triazole-4-carboxamide] and `O=C(NCc1ncn2ccc(Cl)c(F)c12)c1cn(Cc2cn3ncccc3n2)nn1` [Example I-290, N-((7-chloro-8-fluoroimidazo[1,5-a]pyridin-1-yl)methyl)-1-(imidazo[1,2-b]pyridazin-2-ylmethyl)-1H-1,2,3-triazole-4-carboxamide] fall in the same range of EC50: 10 to 100 nM for the first, 10 to 100 nM for the second.

`O=C(NCc1ncn2ccc(Cl)cc12)c1cnn(Cc2cn3cc(C(F)(F)F)ccc3n2)c1` [Example I-18, N-((7-chloroimidazo[1,5-a]pyridin-1-yl)methyl)-1-((6-(trifluoromethyl)imidazo[1,2-a]pyridin-2-yl)methyl)-1H-pyrazole-4-carboxamide] and `O=C(NCc1ncn2ccc(Br)cc12)c1cnn(Cc2cn3cc(C(F)(F)F)ccc3n2)c1` [Example I-19, N-((7-bromoimidazo[1,5-a]pyridin-1-yl)methyl)-1-((6-(trifluoromethyl)imidazo[1,2-a]pyridin-2-yl)methyl)-1H-pyrazole-4-carboxamide] fall in the same range of EC50: 1 to 10 nM for the first, 1 to 10 nM for the second.

`O=C(NCc1ncn2ccc(Cl)cc12)c1cn(Cc2cn3cc(C4CC4)cc(C4(O)COC4)c3n2)nn1` [Example I-153, N-((7-chloroimidazo[1,5-a]pyridin-1-yl)methyl)-1-((6-cyclopropyl-8-(3-hydroxyoxetan-3-yl)imidazo[1,2-a]pyridin-2-yl)methyl)-1H-1,2,3-triazole-4-carboxamide] and `O=C(NCc1ncn2ccc(Cl)cc12)c1cn(Cc2cn3cc(C4CC4)cc(CCc4nnn[nH]4)c3n2)nn1` [Example I-194, 1-((8-(2-(1H-tetrazol-5-yl)ethyl)-6-cyclopropylimidazo[1,2-a]pyridin-2-yl)methyl)-N-((7-chloroimidazo[1,5-a]pyridin-1-yl)methyl)-1H-1,2,3-triazole-4-carboxamide] cannot be ordered by EC50: < 1 nM for the first, < 1 nM for the second.

First: O=C(NCc1ncn2ccc(Cl)c(F)c12)c1cn(Cc2cn3ncccc3n2)cn1 [Example I-291, N-((7-chloro-8-fluoroimidazo[1,5-a]pyridin-1-yl)methyl)-1-(imidazo[1,2-b]pyridazin-2-ylmethyl)-1H-imidazole-4-carboxamide]
Second: O=C(NCc1ncn2ccc(Cl)c(F)c12)c1cnn(Cc2nc3ccccn3n2)c1 [Example I-282, 1-([1,2,4]triazolo[1,5-a]pyridin-2-ylmethyl)-N-((7-chloro-8-fluoroimidazo[1,5-a]pyridin-1-yl)methyl)-1H-pyrazole-4-carboxamide]
The EC50 of the first is lower: 10 to 100 nM for the first, 100 to 2000 nM for the second.

First: CC1CC1c1ccc2nc(Cn3cc(C(=O)NCc4ncn5ccc(Br)cc45)cn3)cn2c1 (centres unmarked) [Example I-44, N-((7-bromoimidazo[1,5-a]pyridin-1-yl)methyl)-1-((6-(2-methylcyclopropyl)imidazo[1,2-a]pyridin-2-yl)methyl)-1H-pyrazole-4-carboxamide]
Second: O=C(NCc1ncn2ccc(Cl)cc12)c1cnn(Cc2cn3cc(C4CCC4)ccc3n2)c1 [Example I-61, N-((7-chloroimidazo[1,5-a]pyridin-1-yl)methyl)-1-((6-cyclobutylimidazo[1,2-a]pyridin-2-yl)methyl)-1H-pyrazole-4-carboxamide]
The EC50 of the first is lower: < 1 nM for the first, 1 to 10 nM for the second.

Going from `O=C(NCc1ncn2ccc(Cl)cc12)c1cnn(Cc2cn3cc(C4CC4)cc(N4CCCC4=O)c3n2)c1` [Example I-114, N-((7-chloroimidazo[1,5-a]pyridin-1-yl)methyl)-1-((6-cyclopropyl-8-(2-oxopyrrolidin-1-yl)imidazo[1,2-a]pyridin-2-yl)methyl)-1H-pyrazole-4-carboxamide] to `O=C(O)c1ccc2nc(Cn3cc(C(=O)NCc4ncn5ccc(Cl)cc45)cn3)cn2c1` [Example I-96, 2-((4-(((7-chloroimidazo[1,5-a]pyridin-1-yl)methyl)carbamoyl)-1H-pyrazol-1-yl)methyl)imidazo[1,2-a]pyridine-6-carboxylic acid], the EC50 rises from < 1 nM to > 2000 nM. The first is the more potent here.

Compared with `O=C(NCc1ncn2ccc(Cl)c(F)c12)c1cn(Cc2cc3ccc(Cl)cc3[nH]2)nn1` [Example I-222, 1-((6-chloro-1H-indol-2-yl)methyl)-N-((7-chloro-8-fluoroimidazo[1,5-a]pyridin-1-yl)methyl)-1H-1,2,3-triazole-4-carboxamide], `O=C(NCc1ncn2ccc(Cl)c(F)c12)c1cn(Cc2cc3ccc(Cl)cc3s2)nn1` [Example I-234, N-((7-chloro-8-fluoroimidazo[1,5-a]pyridin-1-yl)methyl)-1-((6-chlorobenzo[b]thiophen-2-yl)methyl)-1H-1,2,3-triazole-4-carboxamide] is lower in EC50: 100 to 2000 nM for the first, 10 to 100 nM for the second.

`O=C(O)CCc1cc(C2CC2)cn2cc(Cn3cc(C(=O)NCc4ncn5ccc(Cl)c(F)c45)nn3)nc12` [Example I-163b, 3-(2-((4-(((7-chloro-8-fluoroimidazo[1,5-a]pyridin-1-yl)methyl)carbamoyl)-1H-1,2,3-triazol-1-yl)methyl)-6-cyclopropylimidazo[1,2-a]pyridin-8-yl)propanoic acid] and `O=C(O)Cc1cc(C2CC2)cn2cc(Cn3cc(C(=O)NCc4ncn5ccc(Cl)c(F)c45)nn3)nc12` [Example I-157b, 2-(2-((4-(((7-chloro-8-fluoroimidazo[1,5-a]pyridin-1-yl)methyl)carbamoyl)-1H-1,2,3-triazol-1-yl)methyl)-6-cyclopropylimidazo[1,2-a]pyridin-8-yl)acetic acid] cannot be ordered by EC50: < 1 nM for the first, < 1 nM for the second.

`O=C(NCc1ncn2ccc(Cl)c(F)c12)c1cn(Cc2cn3nc(C4CC4)cc(N4CC(C(=O)O)C4)c3n2)nn1` [Example I-265b, 1-(2-((4-(((7-chloro-8-fluoroimidazo[1,5-a]pyridin-1-yl)methyl)carbamoyl)-1H-1,2,3-triazol-1-yl)methyl)-6-cyclopropylimidazo[1,2-b]pyridazin-8-yl)azetidine-3-carboxylic acid] and `COC(=O)C1CN(c2cc(C3CC3)nn3cc(Cn4cc(C(=O)NCc5ncn6ccc(Cl)c(F)c56)nn4)nc23)C1` [Example I-265a, methyl 1-(2-((4-(((7-chloro-8-fluoroimidazo[1,5-a]pyridin-1-yl)methyl)carbamoyl)-1H-1,2,3-triazol-1-yl)methyl)-6-cyclopropylimidazo[1,2-b]pyridazin-8-yl)azetidine-3-carboxylate] cannot be ordered by EC50: < 1 nM for the first, < 1 nM for the second.

`O=C(NCc1ncn2ccc(Cl)c(F)c12)c1cn(Cc2cn3nc(C4CC4)ccc3n2)nn1` [Example I-150, N-((7-chloro-8-fluoroimidazo[1,5-a]pyridin-1-yl)methyl)-1-((6-cyclopropylimidazo[1,2-b]pyridazin-2-yl)methyl)-1H-1,2,3-triazole-4-carboxamide] and `O=C(NCc1ncn2ccc(Cl)c(F)c12)c1cn(Cc2cc3cc(C4CC4)cc(C(F)(F)F)n3n2)nn1` [Example I-231, N-((7-chloro-8-fluoroimidazo[1,5-a]pyridin-1-yl)methyl)-1-((5-cyclopropyl-7-(trifluoromethyl)pyrazolo[1,5-a]pyridin-2-yl)methyl)-1H-1,2,3-triazole-4-carboxamide] cannot be ordered by EC50: < 1 nM for the first, < 1 nM for the second.

First: N#Cc1cccc2nc(Cn3cc(C(=O)NCc4ncn5ccc(Cl)cc45)cn3)cn12 [Example I-54, N-((7-chloroimidazo[1,5-a]pyridin-1-yl)methyl)-1-((5-cyanoimidazo[1,2-a]pyridin-2-yl)methyl)-1H-pyrazole-4-carboxamide]
Second: Cc1c(Cl)ccc2nc(Cn3cc(C(=O)NCc4ncn5ccc(Cl)cc45)cn3)cn12 [Example I-7, 1-((6-chloro-5-methylimidazo[1,2-a]pyridin-2-yl)methyl)-N-((7-chloroimidazo[1,5-a]pyridin-1-yl)methyl)-1H-pyrazole-4-carboxamide]
The EC50 of the first is higher: 10 to 100 nM for the first, 1 to 10 nM for the second. The second is the more potent here.

First: O=C(NCc1ncn2ccc(Br)cc12)c1cnn(Cc2cn3c(Cl)c(Br)ccc3n2)c1 [Example I-40, 1-((6-bromo-5-chloroimidazo[1,2-a]pyridin-2-yl)methyl)-N-((7-bromoimidazo[1,5-a]pyridin-1-yl)methyl)-1H-pyrazole-4-carboxamide]
Second: N#CNC(=NCc1ncn2ccc(Cl)cc12)c1cnn(Cc2cn3cc(C4CC4)ccc3n2)c1 [Example I-123, N′-((7-chloroimidazo[1,5-a]pyridin-1-yl)methyl)-N-cyano-1-((6-cyclopropylimidazo[1,2-a]pyridin-2-yl)methyl)-1H-pyrazole-4-carboximidamide]
The EC50 of the first is lower: < 1 nM for the first, 1 to 10 nM for the second.

Compared with `N#Cc1cc(Cn2cc(C(=O)NCc3ncn4ccc(Cl)c(F)c34)nn2)cc2cc(C3CC3)cnc12` [Example I-273, N-((7-chloro-8-fluoroimidazo[1,5-a]pyridin-1-yl)methyl)-1-((8-cyano-3-cyclopropylquinolin-6-yl)methyl)-1H-1,2,3-triazole-4-carboxamide], `CCOC(=O)C(C)(C)C(O)c1cc(C2CC2)cn2cc(Cn3cc(C(=O)NCc4ncn5ccc(Cl)c(F)c45)nn3)nc12` (centres unmarked) [Example I-241a, ethyl 3-(2-((4-(((7-chloro-8-fluoroimidazo[1,5-a]pyridin-1-yl)methyl)carbamoyl)-1H-1,2,3-triazol-1-yl)methyl)-6-cyclopropylimidazo[1,2-a]pyridin-8-yl)-3-hydroxy-2,2-dimethylpropanoate] is lower in EC50: 1 to 10 nM for the first, < 1 nM for the second. The second is the more potent here.
